The text below walks through data of US20240358783A1, “METHOD AND SYSTEM FOR THE TRANSDERMAL ADMINISTRATION OF A P[…]” (LYFE CHNG, LLC, priority 2021, published 2024).

This data set is described as follows: skin flux of psilocin, inventors' testing. The format is in vitro ADME. The method, then:
With psilocin, specifically, the Madsen et al. findings provide a starting point for identifying optimal plasma psilocin levels that correlate with a desired 5-HT2A receptor occupancy levels. According to the inventors' testing, the skin flux of psilocin is in the range of 1 μg/cm^2/hr to […], on average 5 μg/cm^2/hr. With patch area of 50 cm^2 the dose per hour input ranges from 50 μg/hr/patch to 500 μg/hr/patch. At this patch size, the high end of the hourly input is approaching that of a 1-mg intravenous application. The daily dose ranges from 1.2 mg/day/patch to 12 mg/day/patch. At a skin flux of 5 μg/cm^2/hr, the hourly input is 250 μg/hr/patch and the daily dose is 6 mg/day/patch. A suitable transdermal system for accomplishing the aforementioned delivery profile can be constructed as described above.

Setting [1] is: patch area of 50 cm^2, at a skin flux of 5 μg/cm^2/hr.

On to `CN(C)CCc1c[nH]c2cccc(O)c12` [psilocin], for which the “skin flux of psilocin, on average” value (average, according to the inventors' testing) amounted to 5 μg/cm^2/hr. Under setting [1], this compound registered a daily dose of 6 mg/day/patch and a hourly input of 250 μg/hr/patch.
